The results in this text go back to ChEMBL document CHEMBL1129488, “Controlled modification of acidity in cholecystokinin B receptor antagonists: N-(1,4-benzodiazepin-3-yl)-N'-[3-(tetrazol-5-ylamino) phenyl]ureas” (J Med Chem, 1996).

The nature of data set [1]: pKa value for the compound is determined by potentiometric titration. In kind it is physicochemical.
The conditions of data set [2]: buffer, pH 0.
Description: The solubility is evaluated at a pH 0f 7.4
Data set [3] in a line: physchem.
Description: pKa value is evaluated by nonlinear regression analysis of pH-dependent partition measurements.
Data set [4] in a line: physchem. Conditions: buffer, pH 7.4.
Description: Lipophilicity was measured at pH 7.4
Data set [5] addresses T1, Cholecystokinin receptor type A (Rattus norvegicus, UniProt P30551).
T1 sequence (P30551 whole entry): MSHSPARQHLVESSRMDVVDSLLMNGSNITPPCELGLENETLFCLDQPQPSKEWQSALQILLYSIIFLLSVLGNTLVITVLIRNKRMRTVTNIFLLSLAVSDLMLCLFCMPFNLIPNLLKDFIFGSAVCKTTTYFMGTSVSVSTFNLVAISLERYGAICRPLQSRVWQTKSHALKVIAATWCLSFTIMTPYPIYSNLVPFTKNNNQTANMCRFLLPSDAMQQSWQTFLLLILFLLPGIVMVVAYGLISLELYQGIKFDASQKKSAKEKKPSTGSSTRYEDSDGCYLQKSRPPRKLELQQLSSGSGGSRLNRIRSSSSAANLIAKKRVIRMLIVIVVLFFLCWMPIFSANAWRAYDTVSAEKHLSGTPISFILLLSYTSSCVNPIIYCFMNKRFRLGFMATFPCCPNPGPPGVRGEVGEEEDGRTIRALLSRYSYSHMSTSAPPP
Description: Inhibition of [125 I]BH CCK-8S binding to Cholecystokinin type A receptor in pancreatic tissue

Data set [6] is described as follows: pKa value is evaluated by nonlinear regression analysis of pH-dependent partition measurements; pKa could not be reliably determined due to poor solubility at low pHs. It is filed as physicochemical.

By pKa is commonly meant the negative logarithm of the acid dissociation constant. Low readings indicate a stronger acid or weaker base, high ones a weaker acid or stronger base. `O=[N+]([O-])c1ccc(CNc2nn[nH]n2)cc1`: in data set [1], the pKa stood at 5.53. The same measure, in the same setting: under `CN(c1ccc([N+](=O)[O-])cc1)c1nn[nH]n1` stands 4.46; under `Cc1cc([N+](=O)[O-])ccc1N(C)c1nn[nH]n1`, 5.02. In data set [2], `CN1C(=O)[C@H](NC(=O)Nc2cccc(N(C)c3nn[nH]n3)c2)N=C(C2CCCCC2)c2ccccc21` showed an S of 60 µg/mL. One may read the logD as the decadic logarithm of the distribution of all forms, ionised or not, between an organic phase and buffer at a given pH. Low readings indicate lower lipophilicity, high ones higher lipophilicity. `CN1C(=O)[C@H](NC(=O)Nc2ccc3c(c2)N(c2nn[nH]n2)CC3)N=C(c2ccccc2)c2ccccc21` displayed a S in data set [2] of 0.87 µg/mL. The pKa in the data set “physchem [3]” was 4.8. Also, the logD in “physchem [4]” turned out to be 1.38.

A word on the IC50: it is the concentration at which inhibition is half-maximal. Read a high IC50 as a need for much substance. The molecule `CN1C(=O)[C@H](NC(=O)Nc2cccc(CNc3nn[nH]n3)c2)N=C(c2ccccc2)c2ccccc21` registered an IC50 in data set [5] of 3 µM. For the same molecule, the S in data set [2] was found to be 0.02 µg/mL. The molecule also returned a pKa in the data set “physchem [3]” of 5.9. The molecule also yielded a logD in “physchem [4]” of 1.47.

On to `Cc1ccc(NC(=O)N[C@@H]2N=C(c3ccccc3)c3ccccc3N(C)C2=O)cc1Nc1nn[nH]n1`, for which, in data set [5], the IC50 was 3 µM. Moreover, the S in data set [2] was 0.88 µg/mL. The same molecule registered a pKa in the data set “physchem [3]” of 1.37. In the data set “physchem [4]”, this molecule came in with a logD of 1.37. `Cc1ccc(NC(=O)N[C@@H]2N=C(C3CCCCC3)c3ccccc3N(C)C2=O)cc1Nc1nn[nH]n1` gave a S in data set [2] of 57 µg/mL. Consider `O=[N+]([O-])c1ccc2c(c1)CCN2c1nn[nH]n1`, for which the pKa in data set [1] came out at 4.02.

In data set [2], `CN1C(=O)[C@H](NC(=O)Nc2cccc(CNc3nn[nH]n3)c2)N=C(C2CCCCC2)c2ccccc21` showed an S of 3.7 µg/mL. Same read-out and setting: to `Cc1cccc(NC(=O)N[C@@H]2N=C(c3ccccc3)c3ccccc3N(C)C2=O)c1` [L-365260] belongs less than 0.002 µg/mL. In the case of `CN1C(=O)[C@H](NC(=O)Nc2cccc(Nc3nn[nH]n3)c2)N=C(c2ccccc2)c2ccccc21`, the IC50 in data set [5] was 3 µM. Also, in data set [2], the S is 0.1 µg/mL. In addition, the pKa in “physchem [3]” amounted to 5.1. In addition, in the data set “physchem [4]”, the logD is 0.89. For `O=[N+]([O-])c1ccc(Nc2nn[nH]n2)cc1`, the pKa in data set [1] is 4.23. For the molecule `Cc1cc([N+](=O)[O-])ccc1Nc1nn[nH]n1`, in data set [1], the pKa is 4.46. As for `Cc1ccc(NC(=O)N[C@@H]2N=C(C3CCCCC3)c3ccccc3N(C)C2=O)cc1N(C)c1nn[nH]n1`, half-maximal inhibition in data set [5] (IC50) required 1.6 µM. Further, in data set [2], the S turned out to be 0.49 µg/mL. For the molecule `CN1C(=O)[C@H](NC(=O)Nc2cccc(N(C)c3nn[nH]n3)c2)N=C(c2ccccc2)c2ccccc21`, the pKa result in data set [6] is recorded as “Insoluble”. For the same molecule, the IC50 in data set [5] was determined as 3 µM. Also, in data set [2], the S is 0.16 µg/mL. Also, the log distribution coefficient (logD) in the data set “physchem [4]” was 1.14.
